Experimental findings from ChEMBL document CHEMBL3751663, “Design and Synthesis of a Focused Library of Diamino Triazines as Potential Mycobacterium tuberculosis DHFR Inhibitors” (ACS Med Chem Lett, 2015) are described below.

One data set relates to HepG2. Kind of data set: Cytotoxicity against human HepG2 cells by SRB assay. It is filed as cell-based. A general note: Sulforhodamine B stains cellular protein and so reports cell mass.
Another data set has as its system A549. Kind of data set: Cytotoxicity against human A549 cells. It is filed as cell-based.
The test system of another data set is Escherichia coli. Kind of data set: Antimicrobial activity against Escherichia coli. It is filed as functional.
Data set [1] has as its system Mycobacterium tuberculosis. Kind of data set: microbe, parasite or virus in culture. Particulars: H37Rv, 48 h.
Description: Antimycobacterium activity against Mycobacterium tuberculosis H37Rv after 48 hrs by Resazurin microtiter assay
Another data set relates to Staphylococcus aureus. Kind of data set: Antimicrobial activity against Staphylococcus aureus. The format is functional.
Data set [2] relates to Mycobacterium tuberculosis. Briefly: Antimycobacterium activity against Mycobacterium tuberculosis H37Ra at dormant stage at 10 ug/ml. The format is functional.
In data set [3] the target is T1, Dihydrofolate reductase (Mycobacterium tuberculosis, UniProt P9WNX1).
T1 sequence (P9WNX1 whole entry): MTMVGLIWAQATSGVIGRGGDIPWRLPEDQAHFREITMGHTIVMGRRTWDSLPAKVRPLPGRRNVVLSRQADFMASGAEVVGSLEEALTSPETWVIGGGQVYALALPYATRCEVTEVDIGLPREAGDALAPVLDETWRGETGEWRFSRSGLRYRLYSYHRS
Briefly: Inhibition of recombinant Mycobacterium tuberculosis DHFR using 45 uM DHF as substrate by spectrophotometry.

Data set [4] concerns the target T2, Dihydrofolate reductase (Homo sapiens, UniProt P00374).
T2 sequence (P00374 whole entry): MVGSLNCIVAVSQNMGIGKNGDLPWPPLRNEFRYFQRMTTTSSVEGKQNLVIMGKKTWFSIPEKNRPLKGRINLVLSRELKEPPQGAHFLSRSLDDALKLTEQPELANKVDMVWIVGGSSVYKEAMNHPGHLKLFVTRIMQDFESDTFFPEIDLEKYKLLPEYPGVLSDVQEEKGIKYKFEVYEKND
Kind of data set: Inhibition of human DHFR using 45 uM DHF as substrate by spectrophotometry.

In brackets after ≈: the same amount, converted by molar mass.

On to `Cc1ccc(Oc2ccc(-c3nc(N)nc(N)n3)cc2)cc1`, for which the Activity result in the data set on HepG2 and in the data set with A549 was “Non-toxic” throughout. Also, the MIC with Escherichia coli was 426 µM (≈ 125 µg/mL); in data set [1], greater than 418 µM; in the data set on Staphylococcus aureus, 426 µM (≈ 125 µg/mL).
By inhibition is commonly meant the percentage by which the read-out fell short of the control. `Nc1nc(N)nc(-c2ccc(Oc3ccccc3)cc2)n1`: the Activity entry in the data set with HepG2 and with A549 was “Non-toxic” each time. Besides, the MIC in the data set on Escherichia coli is 448 µM (≈ 125 µg/mL); in data set [1] it was 110 µM (≈ 30.6 µg/mL); in the data set on Staphylococcus aureus it was 448 µM (≈ 125 µg/mL). In data set [2], this compound showed an inhibition at 10 µg/mL of 19.4%.
`Nc1nc(N)nc(-c2ccc(Sc3ccccc3)cc2)n1`: the Activity entry in the data set with HepG2 and with A549 was “Non-toxic” throughout. In addition, the MIC against Escherichia coli was 423 µM (≈ 125 µg/mL); in data set [1], 212 µM (≈ 62.5 µg/mL); in the data set with Staphylococcus aureus it was 423 µM (≈ 125 µg/mL). In data set [2], this compound came in with an inhibition at 10 µg/mL of 11.7%.
Consider `Nc1nc(N)nc(-c2ccc(Oc3ccc(F)cc3)cc2)n1`, for which the Activity result in the data set with HepG2 and in the data set with A549 was “Non-toxic” in each case. The MIC against Escherichia coli is 420 µM (≈ 125 µg/mL); in data set [1] it was greater than 420 µM; against Staphylococcus aureus it was 420 µM (≈ 125 µg/mL). This compound also displayed an inhibition at 10 µg/mL in data set [2] of 4.98%.
As for `Nc1nc(N)nc(-c2ccc(Oc3ccc(Cl)cc3)cc2)n1`, the Activity entry with HepG2 and in the data set on A549 was “Non-toxic” each time. For the same compound, the MIC was 398 µM (≈ 125 µg/mL) against Escherichia coli, greater than 398 µM in data set [1] and 398 µM (≈ 125 µg/mL) against Staphylococcus aureus. In data set [2], this compound gave an inhibition at 10 µg/mL of 81.1%.
Take `Cc1cccc(C)c1Oc1ccc(-c2nc(N)nc(N)n2)cc1`: the Activity entry with HepG2 and in the data set with A549 was “Non-toxic” in each case. Besides, the MIC with Escherichia coli was 407 µM (≈ 125 µg/mL); in data set [1] it was 20.3 µM (≈ 6.25 µg/mL); with Staphylococcus aureus, 407 µM (≈ 125 µg/mL). In data set [2], this compound gave an inhibition at 10 µg/mL of 96.9%.
A word on the IC50: it is the point on the concentration scale where inhibition reaches its midpoint. `Cc1cccc(Oc2ccc(-c3nc(N)nc(N)n3)cc2)c1C`: the values for the IC50 on Dihydrofolate reductase [3] and against Dihydrofolate reductase [4] were 25.9 µM and 42 µM, respectively. For the same compound, the Activity result in the data set on HepG2 and with A549 was “Non-toxic” throughout. The MIC worked out at 407 µM (≈ 125 µg/mL) in the data set with Escherichia coli, 0.325 µM (≈ 0.0999 µg/mL) in data set [1] and 407 µM (≈ 125 µg/mL) with Staphylococcus aureus. Also, the inhibition at 10 µg/mL in data set [2] was found to be 16.1%.
For `COc1ccc(Oc2ccc(-c3nc(N)nc(N)n3)cc2)cc1`, the Activity result in the data set with HepG2 and in the data set with A549 was “Non-toxic” in each case. Moreover, the MIC against Escherichia coli is 404 µM (≈ 125 µg/mL); in data set [1], greater than 396 µM; in the data set on Staphylococcus aureus, 404 µM (≈ 125 µg/mL). The same compound registered an inhibition at 10 µg/mL in data set [2] of 37.5%.
Consider `Cc1cc(Oc2ccc(-c3nc(N)nc(N)n3)cc2)ccc1Cl`, for which the Activity result in the data set with HepG2 and with A549 was “Non-toxic” throughout. Besides, the figures for the MIC (in the data set on Escherichia coli; in data set [1]; with Staphylococcus aureus) were 381 µM (≈ 125 µg/mL), greater than 381 µM and 381 µM (≈ 125 µg/mL), respectively. In data set [2], this compound yielded an inhibition at 10 µg/mL of 7.27%.
Take `Cc1cccc(Oc2ccc(-c3nc(N)nc(N)n3)cc2)c1`: the Activity result with HepG2 and with A549 was “Non-toxic” in each case. Besides, the MIC is 426 µM (≈ 125 µg/mL) in the data set with Escherichia coli, greater than 447 µM in data set [1] and 426 µM (≈ 125 µg/mL) against Staphylococcus aureus. At 10 µg/mL the inhibition in data set [2] was 15%.
Regarding `Cc1cc(Oc2ccc(-c3nc(N)nc(N)n3)cc2)cc(C)c1Cl`, the Activity entry in the data set with HepG2 and in the data set on A549 was “Non-toxic” throughout. Also, the MIC with Escherichia coli is 366 µM (≈ 125 µg/mL); in data set [1], greater than 369 µM; in the data set on Staphylococcus aureus, 366 µM (≈ 125 µg/mL). Besides, the inhibition at 10 µg/mL in data set [2] stood at 14.5%.
In the case of `Cc1cc(Cl)ccc1Oc1ccc(-c2nc(N)nc(N)n2)cc1`, the Activity entry in the data set with HepG2 and in the data set on A549 was “Non-toxic” throughout. Also, the MIC against Escherichia coli worked out at 381 µM (≈ 125 µg/mL); in data set [1] it was 1.96 µM (≈ 0.642 µg/mL); in the data set on Staphylococcus aureus it was 381 µM (≈ 125 µg/mL). In addition, the inhibition at 10 µg/mL in data set [2] came out at 87.2%.
`CC(C)(C)c1ccc(Oc2ccc(-c3nc(N)nc(N)n3)cc2)cc1`: the Activity entry in the data set with HepG2 and in the data set with A549 was “Non-toxic” each time. Besides, the MIC in the data set with Escherichia coli is 373 µM (≈ 125 µg/mL); in data set [1] it was greater than 380 µM; against Staphylococcus aureus, 373 µM (≈ 125 µg/mL). In data set [2], this compound came in with an inhibition at 10 µg/mL of 42.2%.
As for `Nc1nc(N)nc(-c2ccc(Oc3ccc(Br)cc3)cc2)n1`, the Activity entry in the data set with HepG2 and in the data set on A549 was “Non-toxic” throughout. Also, the MIC against Escherichia coli was found to be 349 µM (≈ 125 µg/mL); in data set [1] it was 3.56 µM (≈ 1.28 µg/mL); with Staphylococcus aureus, 349 µM (≈ 125 µg/mL). The same compound had an inhibition at 10 µg/mL in data set [2] of 83%.
`Nc1nc(N)nc(-c2ccc(Oc3ccc(Cl)cc3Cl)cc2)n1`: the Activity result in the data set with HepG2 and in the data set with A549 was “Non-toxic” throughout. Moreover, the MIC in the data set on Escherichia coli was determined as 359 µM (≈ 125 µg/mL); in data set [1] it was 3.59 µM (≈ 1.25 µg/mL); against Staphylococcus aureus, 359 µM (≈ 125 µg/mL). Besides, in data set [2], testing at 10 µg/mL gave an inhibition of 93.6%.
`Nc1nc(N)nc(-c2ccc(Oc3ccccc3Cl)cc2)n1`: the Activity entry with HepG2 and in the data set with A549 was “Non-toxic” each time. Besides, the MIC in the data set on Escherichia coli stood at 398 µM (≈ 125 µg/mL); in data set [1] it was 20.7 µM (≈ 6.5 µg/mL); in the data set with Staphylococcus aureus, 398 µM (≈ 125 µg/mL). In data set [2], testing at 10 µg/mL gave an inhibition of 27.6%.
`NNC(=O)c1ccncc1` [ISONIAZID] showed an MIC in data set [1] of 0.73 µM (≈ 0.1 µg/mL).
In data set [1], `CN(Cc1cnc2nc(N)nc(N)c2n1)c1ccc(C(=O)N[C@@H](CCC(=O)O)C(=O)O)cc1` [METHOTREXATE] yielded an MIC of 0.968 µM (≈ 0.44 µg/mL).
Still for that read-out and setting: the result for `COc1cc(Cc2cnc(N)nc2N)cc(OC)c1OC` [TRIMETHOPRIM] reads 28.9 µM (≈ 8.4 µg/mL).
